Laboratory results as given in patent US12680074B2, “Antigen presenting T cells, sensitized, manufactured T cells and methods of treatment using the same” (RAPA THERAPEUTICS, LLC, priority 2020, dated 2026).

B1: daclizumab: anti-IL-2 receptor monoclonal antibody (antibody, chains of the INN, looked up, V domains shown)
VH: QVQLVQSGAEVKKPGSSVKVSCKASGYTFTSYRMHWVRQAPGQGLEWIGYINPSTGYTEYNQKFKDKATITADESTNTAYMELSSLRSEDTAVYYCARGGGVFDYWGQGTLVTVSS
VL: DIQMTQSPSTLSASVGDRVTITCSASSSISYMHWYQQKPGKAPKLLIYTTSNLASGVPARFSGSGSGTEFTLTISSLQPDDFATYYCHQRSTYPLTFGQGTKVEVK

Key:
FoxP3 = experiment: Intra-cellular FoxP3 expression at day 6 of ex vivo T cell culture (FIG. 1A); assay type: cell-based
Protocol: (§1) T cells were cultured ex vivo, as indicated, using various ratios of anti-CD3, anti-CD28 beads to T cells (1:1 or 1:12); the mTOR inhibitor temsirolimus (1 μM); without or with the anti-IL-2 receptor monoclonal antibody daclizumab (5 or 50 μg/ml); and either Th1 polarization cytokines (IFN-alpha; 10,000 IU/ml) or control regulatory T cell polarization (IL-2 plus TGF-β). At day 6 of culture, the T cells were evaluated for intra-cellular expression of the regulatory T cell transcription factor FoxP3 and the Th1 transcription factor TBET. (FIGS. 1A-1B).

[1] = system: IFN-γ and TNF-α secretion by CD4+ and CD8+ T cells; experiment: Day 6 / day 13 cytokine secretion after 3:1 3/28 bead co-stimulation, Luminex (FIGS. 3A-3B); assay type: cell-based
Protocol: To evaluate this, we tested cytokine secretion potential of the manufactured T cells at the end of cell culture (day 6) and then again one week after ex vivo expansion after maximal co-stimulation (3/28 bead-to-T cell ratio, 3:1) and propagation in media devoid of any inhibitors. In FIGS. 3A-3B, CD4^+ and CD8^+ T cells were purified and cultured for 6-days either with or without a 16-hr interval of pre-incubation prior to co-stimulation (1:1 ratio of 3/28 beads-to-T cells). As indicated, temsirolimus was added at concentrations of either 1.0 or 0.1 μM; all cultures were supplemented with IFN-α (10,000 IU/ml) and daclizumab (50 μg/ml). On day 6 of culture, the resultant T cells were co-stimulated for 24 hr using a 3:1 ratio of 3/28 beads; the supernatant was tested for cytokine content by Luminex assay (results are described as pg per ml of cytokine secreted per million cells per 24 hr). […] N.A, abbreviation indicates not applicable (insufficient T cell yield to perform assay).

p62 = experiment: Western blot of p62 after 16-hr pre-incubation (FIG. 11); assay type: cell-based, human
Protocol: (§2) For FIGS. 11-13, human CD4^+ and CD8^+ T cells were cultured using a 16-hr pre-incubation interval prior to the addition of 3/28 beads at the reduced ratio of 1:3 beads-to-T cells. As indicated in FIGS. 11-13, the various T cell cultures received different methods of mTOR inhibition (rapamycin at 1.0 μM; temsirolimus at 1.0 or 0.1 μM), different conditions of exogenous IL-2 addition, and different conditions relative to addition of the anti-IL-2 receptor monoclonal antibody, daclizumab. After the 16-hr pre-incubation interval, cells were harvested from the T cell cultures, protein was isolated, and p62 (FIG. 11), phospho-RAPTOR (FIG. 12), or BIM (FIG. 13) and the housekeeper gene β-actin were quantified by western blot.

phospho-RAPTOR = experiment: Western blot of phospho-RAPTOR after 16-hr pre-incubation (FIG. 12); assay type: cell-based, human; details: high-dose temsirolimus compared to low-dose temsirolimus or high-dose rapamycin
Protocol: as §2

TBET = experiment: Intra-cellular TBET expression at day 6 of ex vivo T cell culture (FIG. 1B); assay type: cell-based
Protocol: as §1

[2] = system: pancreatic cancer cell line MIA PaCa-2 and lung cancer cell line H23; experiment: Example 9 sensitization of manufactured T cells by lysate of etoposide-treated tumor cells, cytokine re-stimulation read-out (FIG. 37); assay type: cell-based, human
Protocol: Manufactured T cells for this and all of the following examples were produced by the following procedure: peripheral blood apheresis PBMC product was subjected to Ficoll gradient centrifugation and the resultant cells were plated at 15×10^6 cells/mL; at culture initiation, temsirolimus was added at a final concentration of 2 μM and basiliximab was added at a final concentration of 30 μg/mL; after 24 hours of culture, IFN-α was added to achieve a final concentration of 20,000 IU/mL; no other cytokines were added; no co-stimulation was provided; the manufactured T cells were harvested on day 6 of culture for further use.
The pancreatic cancer cell line MIA PaCa-2 and the lung cancer cell line H23 were treated for 72-hours with etoposide, an inducer of immunogenic cell death, at concentrations of 0.5, 5.0 and 50 μM. Briefly, a cell concentration of 5×10^6 tumor cells/mL was utilized to generate 100 μL of lysate, which was then used to directly stimulate manufactured T cells. That is, there was no separate T cell APC manufacturing step used for this experiment (lysate added directly to effector T cells). The tumor cell lysate was then added to manufactured T cells which were expanded in X-Vivo 20 media containing IL-2 (100 IU/mL), IL-7 (10 ng/mL), and IL-15 (10 ng/mL).

[3] = temsirolimus plus daclizumab under TREG-permissive conditions: bead ratio 1:12, no IFN-α, exogenous IL-2 plus TGF-β

| Molecule | FoxP3 expression (FoxP3; exogenous IL-2 added in combination with IFN-α) | T cell expression of FoxP3 (FoxP3; temsirolimus 1.0 μM with IFN-α, relative to day 0 input T cell population) | FoxP3 expression (FoxP3; [3]) | day 13 T cell IFN-γ and TNF-α secretion ([1]; pre-incubation plus high-dose temsirolimus, after one week without inhibitors) | day 6 T cell cytokine secretion potential ([1]; temsirolimus 0.1 μM) | day 6 T cell IFN-γ and TNF-α secretion after 24 hr of maximal co-stimulation ([1]; temsirolimus 1.0 μM, with or without overnight pre-incubation) | autophagy marker p62 (p62; pre-incubation, 1:3 beads, daclizumab, rapamycin 1 μM or temsirolimus 1.0 or 0.1 μM) | phosphorylated form of RAPTOR (phospho-RAPTOR) | expression of TBET (TBET; combination of temsirolimus and an anti-IL-2 receptor monoclonal antibody) | sensitizing manufactured T cells to cytokine secretion in response to repeat exposure to lysate ([2]; 72-hour incubation of MIA PaCa-2 or H23 with etoposide 0.5 to 5.0 μM) | T cell sensitization ([2]; etoposide at the higher concentration of 50 μM) | FoxP3 expression, dose-response (FoxP3; antibody at 50 μg/ml versus 5 μg/ml) | FoxP3 expression (FoxP3; blockade of the IL-2 receptor added to temsirolimus and IFN-α) | autophagy marker p62 (p62; IL-2 receptor blockade eliminated from the regimen) | TBET expression, dose response (TBET; 50 μg/ml versus 5 μg/ml) |
| --- | --- | --- | --- | --- | --- | --- | --- | --- | --- | --- | --- | --- | --- | --- | --- |
| CO[C@H]1C[C@@H]2CC[C@@H](C)[C@@](O)(O2)C(=O)C(=O)N2CCCC[C@H]2C(=O)O[C@H]([C@H](C)C[C@@H]2CC[C@@H](OC(=O)C(C)(CO)CO)[C@H](OC)C2)CC(=O)[C@H](C)/C=C(\C)[C@@H](O)[C@@H](OC)C(=O)[C@H](C)C[C@H](C)/C=C/C=C/C=C/1C [temsirolimus] | not effective | reduced | not effective | highest | only partially reduced | very low levels | autophagy could be realized | lower levels of phospho-RAPTOR | increased expression of TBET | – | – | – | – | – | – |
| COc1cc([C@@H]2c3cc4c(cc3[C@@H](O[C@@H]3O[C@@H]5CO[C@@H](C)O[C@H]5[C@H](O)[C@H]3O)[C@H]3COC(=O)[C@H]23)OCO4)cc(OC)c1O [etoposide] | – | – | – | – | – | – | – | – | – | effective | not effective | – | – | – | – |
| B1 | – | – | not effective | – | – | – | – | – | – | – | – | more effective | further reduced | substantially blunted the induction of autophagy | higher degree |
